Assay: Stability of crystalline forms of 5-CNAC (room temperature, humidity, storage)

O=C([O-])CCCCCCCNC(=O)c1cc(Cl)ccc1[O-].[Na+].[Na+] [Form III, di-sodium salt of N-(5-chlorosalicyloyl)-8-aminocaprylic acid]
stability as a function of relative humidity (relative humidity below about 50%): unstable at a relative humidity below about 50%

O=C([O-])CCCCCCCNC(=O)c1cc(Cl)ccc1[O-].[Na+].[Na+] [Form IV, di-sodium salt of N-(5-chlorosalicyloyl)-8-aminocaprylic acid]
form conversion on storage (storage of the mixture of Forms I and IV (Example 5) over time): convert to Form I over time on storage
